This is an account of results in ChEMBL document CHEMBL5291721, “A preclinical secondary pharmacology resource illuminates target-adverse drug reaction associations of marketed drugs” (Nat Commun, 2023).

The target in experiment [1] is T1, Histamine H1 receptor (Homo sapiens, UniProt P35367). Type of experiment: functional, cell-based.
For experiment [2], the target named is T1, Histamine H1 receptor. The class given is functional, cell-based. This is another data set of the same source.
The target in experiment [3] is T2, Muscarinic acetylcholine receptor M1 (Homo sapiens, UniProt P11229).
T2 sequence (P11229 whole entry): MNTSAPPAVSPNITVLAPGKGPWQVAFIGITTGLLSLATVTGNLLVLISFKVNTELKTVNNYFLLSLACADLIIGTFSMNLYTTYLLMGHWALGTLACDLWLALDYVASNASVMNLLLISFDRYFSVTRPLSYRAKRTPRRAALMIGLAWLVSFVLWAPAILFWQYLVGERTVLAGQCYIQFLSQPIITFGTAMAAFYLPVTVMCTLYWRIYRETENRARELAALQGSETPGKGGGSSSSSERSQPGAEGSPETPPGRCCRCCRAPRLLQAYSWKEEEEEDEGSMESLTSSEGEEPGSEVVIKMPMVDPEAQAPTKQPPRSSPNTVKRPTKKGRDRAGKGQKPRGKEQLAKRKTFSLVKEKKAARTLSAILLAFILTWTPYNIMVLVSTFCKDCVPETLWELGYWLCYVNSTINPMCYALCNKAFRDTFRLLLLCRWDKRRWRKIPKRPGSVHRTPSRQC

Experiment [4] addresses T3, Type-1 angiotensin II receptor (Homo sapiens, UniProt P30556).
T3 sequence (P30556 whole entry): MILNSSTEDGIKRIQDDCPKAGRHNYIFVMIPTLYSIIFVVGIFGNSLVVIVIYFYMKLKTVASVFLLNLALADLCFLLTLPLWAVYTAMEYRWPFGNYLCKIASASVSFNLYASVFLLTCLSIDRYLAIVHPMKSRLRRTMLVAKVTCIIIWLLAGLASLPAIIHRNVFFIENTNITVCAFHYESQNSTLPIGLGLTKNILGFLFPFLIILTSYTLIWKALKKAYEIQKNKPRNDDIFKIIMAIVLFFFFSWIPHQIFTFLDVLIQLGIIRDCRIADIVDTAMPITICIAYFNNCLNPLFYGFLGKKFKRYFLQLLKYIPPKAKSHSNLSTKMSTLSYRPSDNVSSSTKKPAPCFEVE

Experiment [5] has as its target T4, Retinoic acid receptor gamma (Homo sapiens, UniProt P13631).
T4 sequence (P13631 whole entry): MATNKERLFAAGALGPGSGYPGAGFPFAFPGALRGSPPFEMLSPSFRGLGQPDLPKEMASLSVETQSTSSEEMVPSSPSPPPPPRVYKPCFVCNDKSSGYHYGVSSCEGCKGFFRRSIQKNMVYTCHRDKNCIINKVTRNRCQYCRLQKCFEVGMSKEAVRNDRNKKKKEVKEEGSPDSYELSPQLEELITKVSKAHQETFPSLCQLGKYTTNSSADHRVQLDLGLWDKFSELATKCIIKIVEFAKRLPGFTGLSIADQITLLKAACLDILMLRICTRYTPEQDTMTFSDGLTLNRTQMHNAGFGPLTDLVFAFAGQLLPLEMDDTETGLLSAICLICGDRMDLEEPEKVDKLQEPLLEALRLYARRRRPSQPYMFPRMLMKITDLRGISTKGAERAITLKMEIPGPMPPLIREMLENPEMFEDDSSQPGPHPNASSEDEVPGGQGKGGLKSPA
The class given is functional, cell-based.

The target in experiment [6] is 5-hydroxytryptamine receptor 2B (Homo sapiens, UniProt P41595).
The target of experiment [7] is T5, Type-2 angiotensin II receptor (Homo sapiens, UniProt P50052).
T5 sequence (P50052 whole entry): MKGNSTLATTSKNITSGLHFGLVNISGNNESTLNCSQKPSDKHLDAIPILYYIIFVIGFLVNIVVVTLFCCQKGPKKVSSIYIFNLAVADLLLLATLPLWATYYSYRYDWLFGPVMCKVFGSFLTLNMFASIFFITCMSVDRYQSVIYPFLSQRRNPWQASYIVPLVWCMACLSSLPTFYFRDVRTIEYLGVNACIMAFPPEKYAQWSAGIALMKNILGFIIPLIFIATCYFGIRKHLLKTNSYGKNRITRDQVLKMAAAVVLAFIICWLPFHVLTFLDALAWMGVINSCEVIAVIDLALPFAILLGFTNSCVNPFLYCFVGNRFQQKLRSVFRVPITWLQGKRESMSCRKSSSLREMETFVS
Type of experiment: functional.

Experiment [8] concerns the target T2, Muscarinic acetylcholine receptor M1. Type of experiment: functional, cell-based.
The target is the same in experiment [9]. Type of experiment: functional, cell-based. This is another data set of the same source.
Experiment [10] has as its target T6, Prostaglandin G/H synthase 1 (Rattus norvegicus, UniProt Q63921).
T6 sequence (Q63921 whole entry): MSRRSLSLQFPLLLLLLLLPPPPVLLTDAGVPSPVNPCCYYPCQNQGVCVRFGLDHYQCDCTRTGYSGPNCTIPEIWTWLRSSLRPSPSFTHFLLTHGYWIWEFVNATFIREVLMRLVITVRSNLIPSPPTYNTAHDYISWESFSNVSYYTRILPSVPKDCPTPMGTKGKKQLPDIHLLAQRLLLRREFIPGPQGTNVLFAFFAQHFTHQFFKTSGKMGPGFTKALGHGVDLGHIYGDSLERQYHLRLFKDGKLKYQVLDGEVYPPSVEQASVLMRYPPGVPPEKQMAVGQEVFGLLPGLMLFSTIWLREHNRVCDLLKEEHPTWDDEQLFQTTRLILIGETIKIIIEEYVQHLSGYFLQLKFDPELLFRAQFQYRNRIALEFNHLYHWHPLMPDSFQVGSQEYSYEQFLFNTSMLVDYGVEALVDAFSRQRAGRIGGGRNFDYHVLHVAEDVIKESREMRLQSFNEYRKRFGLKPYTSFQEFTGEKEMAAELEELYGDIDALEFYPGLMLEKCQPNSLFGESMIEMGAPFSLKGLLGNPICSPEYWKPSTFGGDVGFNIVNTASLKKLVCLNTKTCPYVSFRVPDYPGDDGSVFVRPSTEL
Type of experiment: functional.
Note: assay procedure not described here.

T1 sequence (P35367 whole entry): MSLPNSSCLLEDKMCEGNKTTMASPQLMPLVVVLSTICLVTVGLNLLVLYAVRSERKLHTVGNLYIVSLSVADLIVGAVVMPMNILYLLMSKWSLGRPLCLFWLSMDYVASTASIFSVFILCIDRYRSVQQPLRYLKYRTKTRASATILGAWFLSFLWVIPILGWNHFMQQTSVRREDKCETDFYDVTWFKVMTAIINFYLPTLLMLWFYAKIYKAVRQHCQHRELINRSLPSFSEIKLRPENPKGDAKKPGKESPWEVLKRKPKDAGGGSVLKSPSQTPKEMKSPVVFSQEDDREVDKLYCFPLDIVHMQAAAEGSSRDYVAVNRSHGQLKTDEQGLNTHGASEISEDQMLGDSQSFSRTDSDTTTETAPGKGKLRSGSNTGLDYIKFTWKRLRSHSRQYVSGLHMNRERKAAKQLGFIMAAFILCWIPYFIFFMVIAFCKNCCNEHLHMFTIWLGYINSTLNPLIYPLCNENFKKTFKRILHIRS
Sequence of 5-hydroxytryptamine receptor 2B (P41595 whole entry): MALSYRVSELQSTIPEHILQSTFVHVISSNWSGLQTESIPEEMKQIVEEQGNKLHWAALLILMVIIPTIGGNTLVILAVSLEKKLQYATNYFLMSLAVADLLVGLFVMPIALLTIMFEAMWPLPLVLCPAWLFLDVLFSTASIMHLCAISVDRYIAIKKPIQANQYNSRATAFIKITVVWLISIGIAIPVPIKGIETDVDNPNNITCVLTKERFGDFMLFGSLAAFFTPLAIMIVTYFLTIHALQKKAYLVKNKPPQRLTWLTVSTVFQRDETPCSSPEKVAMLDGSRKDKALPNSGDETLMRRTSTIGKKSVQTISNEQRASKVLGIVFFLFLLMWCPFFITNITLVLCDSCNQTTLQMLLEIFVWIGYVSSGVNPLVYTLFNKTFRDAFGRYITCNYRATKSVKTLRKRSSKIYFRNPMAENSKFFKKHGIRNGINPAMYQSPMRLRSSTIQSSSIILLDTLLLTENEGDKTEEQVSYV

One may read the AC50 as the concentration giving half of the maximal activity seen. The low end stands for activity at low concentration, the high end for activity only at high concentration. For `Nc1nc(NC2CC2)c2ncn([C@H]3C=C[C@@H](CO)C3)c2n1` [ABACAVIR], the AC50 at Histamine H1 receptor [1] and on Histamine H1 receptor [2] was above 30 µM throughout.
Consider `CCc1oc2ccccc2c1C(=O)c1cc(I)c(O)c(I)c1` [BENZIODARONE], for which the AC50 in experiment [3] is above 30 µM.
Take `O=C(OCC(O)CO)c1ccccc1Nc1ccnc2cc(Cl)ccc12` (stereo unspecified) [GLAFENINE]: the AC50 in [4] was above 100 µM.
`CN1C(C(=O)Nc2ccccn2)=C(O)c2sc(Cl)cc2S1(=O)=O` [LORNOXICAM] returned an AC50 in experiment [5] above 30 µM.
Regarding `CCCN1C[C@H](CSC)C[C@@H]2c3cccc4[nH]cc(c34)C[C@H]21` [PERGOLIDE], in experiment [6], the activity was half-maximal at 0.0084 µM (AC50).
In turn, `C1CCC(C(CC2CCCCN2)C2CCCCC2)CC1` (stereo unspecified) [PERHEXILINE] had an AC50 in [7] above 100 µM.
In experiment [5], `Cc1c(C(=O)NN2CCCCC2)nn(-c2ccc(Cl)cc2Cl)c1-c1ccc(Cl)cc1` [RIMONABANT] returned an AC50 above 30 µM.
As for `O=C(O[C@H]1C[C@H]2CC[C@@H](C1)[N+]21CCCC1)C(O)(c1ccccc1)c1ccccc1` [TROSPIUM], the AC50 in experiment [8] is 0.0027 µM; in experiment [9], above 30 µM; in experiment [10], above 30 µM.
